Test results as given in EP0823908B1, “PYRIDO[2,3-d]PYRIMIDINES FOR INHIBITING PROTEIN TYROSINE KINASE MEDIATED [sequence] PROLIFERATION” (Warner-Lambert Company LLC, priority 1995, dated 1996).
pIC50: −log10 of the molar value.

How the values were obtained:
[1] = molecular target: T1, mouse PDGF-β receptor tyrosine kinase (Mus musculus, UniProt P05622); test: PDGF receptor tyrosine kinase assay (32P incorporation into glutamate-tyrosine co-polymer); assay type: biochemical; details: read-out: PDGFr-TK IC50
T1 construct: amplify a fragment of DNA that codes for the intracellular tyrosine kinase domain; made in house; host or cells: SF9 insect cells (baculovirus)
Method in brief: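 32P transfer from γ32P-ATP (50 µM ATP) to poly(Glu,Tyr) 4:1 was measured over 10 min at 25°C and counted after TCA precipitation onto filters, minus the no-enzyme background. Enzyme was baculovirus/SF9 lysate of the kinase domain, preincubated 10 min with inhibitor in Hepes pH 7.0, MnCl2, vanadate.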

C-src kinase = molecular target: T2, C-src kinase (Homo sapiens, UniProt P12931); test: C-src kinase assay (poly GluTyr substrate); assay type: biochemical; details: read-out: C-src TK IC50
T2 construct: made in house; host or cells: baculovirus infected insect cells

[2] = molecular target: T3, Human EGF receptor tyrosine kinase (Homo sapiens, UniProt P00533); test: EGF receptor tyrosine kinase enzyme assay (substrate peptide phosphorylation); assay type: biochemical; details: read-out: EGF-FL IC50
T3 construct: Human EGF receptor tyrosine kinase was isolated from A431 epidermoid carcinoma cells; endogenous in cells; host or cells: A431 epidermoid carcinoma cells

HCT-8 = test: Soft agar colony formation, human colon adenocarcinoma cells; assay type: cell-based; details: HCT-8, 336 h, read-out: Inhibition of Human Colon Adenocarcinoma IC50, HCT-8
Method: (§1) Three such human cell lines were identified as HCT-8, SW-620, and HT-29. In a typical assay, the cells are suspended in 0.3% soft agar containing an invention compound at various concentration levels, and are plated into six-well plates, each plate containing a 1% agar plug. The cell plates are incubated at 37°C in a humidified carbon dioxide (5%) incubator, generally for 2 weeks. At the end of the incubation period, colonies of cells are detected by staining the wells with 1 mg/mL of p-iodonitrotetrazolium violet. The cells are counted on an optical colony counter. […] TABLE III. Inhibition of Human Colon Adenocarcinoma IC50 (µM)

HT-29 = test: as above; assay type: cell-based; details: HT-29, 336 h, read-out: Inhibition of Human Colon Adenocarcinoma IC50, HT-29
Method: as §1

SW-620 = test: as above; assay type: cell-based; details: SW-620, 336 h, read-out: Inhibition of Human Colon Adenocarcinoma IC50, SW-620
Method: as §1

transplanted tumors = test: Transplanted tumor assay; assay type: in vivo; details: F1 hybrid mice; compound generally by infusion by tail tether
Method: F1 hybrid mice were used in the assay. The mice receive ascites fluid or dilutions of tumor brei on Day 0. A sample of the inocula is incubated in thioglycolate media as a check for gross contamination of the tumor material. After all test animals are inoculated with tumors, they are randomized for the assay. Control animals receive vehicle, while treated animals receive an invention compound dissolved in the vehicle, generally by infusion by tail tether. All animals are monitored daily for acute toxicity and other clinical signs. Survival is checked daily for the control group and treated group. The assay generally is continued for 60 days, at which time all surviving animals are euthanized.

T2 sequence (P12931 whole entry): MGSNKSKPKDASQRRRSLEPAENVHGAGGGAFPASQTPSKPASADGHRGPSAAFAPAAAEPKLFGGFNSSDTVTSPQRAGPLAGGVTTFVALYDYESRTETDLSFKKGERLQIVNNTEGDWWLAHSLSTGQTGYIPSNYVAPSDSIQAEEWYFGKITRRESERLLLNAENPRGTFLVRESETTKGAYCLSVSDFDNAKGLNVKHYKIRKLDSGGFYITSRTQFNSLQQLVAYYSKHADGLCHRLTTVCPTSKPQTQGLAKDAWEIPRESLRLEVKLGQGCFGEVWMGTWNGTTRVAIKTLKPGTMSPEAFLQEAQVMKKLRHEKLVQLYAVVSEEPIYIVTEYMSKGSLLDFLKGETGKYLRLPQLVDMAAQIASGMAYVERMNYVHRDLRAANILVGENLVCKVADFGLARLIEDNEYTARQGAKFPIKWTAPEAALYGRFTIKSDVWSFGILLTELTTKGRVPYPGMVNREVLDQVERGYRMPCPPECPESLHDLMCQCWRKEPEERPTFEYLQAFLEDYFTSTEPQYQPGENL
T1 sequence (P05622 599-961 limits assumed): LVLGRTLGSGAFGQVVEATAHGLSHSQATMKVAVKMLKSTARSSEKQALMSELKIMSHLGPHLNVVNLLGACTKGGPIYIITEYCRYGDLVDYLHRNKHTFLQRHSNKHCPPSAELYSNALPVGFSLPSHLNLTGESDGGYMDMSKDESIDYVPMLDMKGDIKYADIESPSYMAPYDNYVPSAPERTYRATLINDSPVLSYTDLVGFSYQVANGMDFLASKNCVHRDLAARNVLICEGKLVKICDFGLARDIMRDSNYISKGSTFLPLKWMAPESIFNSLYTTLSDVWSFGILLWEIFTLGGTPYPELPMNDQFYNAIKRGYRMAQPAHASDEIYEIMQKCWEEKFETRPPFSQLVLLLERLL
T3 sequence (P00533 25-1210): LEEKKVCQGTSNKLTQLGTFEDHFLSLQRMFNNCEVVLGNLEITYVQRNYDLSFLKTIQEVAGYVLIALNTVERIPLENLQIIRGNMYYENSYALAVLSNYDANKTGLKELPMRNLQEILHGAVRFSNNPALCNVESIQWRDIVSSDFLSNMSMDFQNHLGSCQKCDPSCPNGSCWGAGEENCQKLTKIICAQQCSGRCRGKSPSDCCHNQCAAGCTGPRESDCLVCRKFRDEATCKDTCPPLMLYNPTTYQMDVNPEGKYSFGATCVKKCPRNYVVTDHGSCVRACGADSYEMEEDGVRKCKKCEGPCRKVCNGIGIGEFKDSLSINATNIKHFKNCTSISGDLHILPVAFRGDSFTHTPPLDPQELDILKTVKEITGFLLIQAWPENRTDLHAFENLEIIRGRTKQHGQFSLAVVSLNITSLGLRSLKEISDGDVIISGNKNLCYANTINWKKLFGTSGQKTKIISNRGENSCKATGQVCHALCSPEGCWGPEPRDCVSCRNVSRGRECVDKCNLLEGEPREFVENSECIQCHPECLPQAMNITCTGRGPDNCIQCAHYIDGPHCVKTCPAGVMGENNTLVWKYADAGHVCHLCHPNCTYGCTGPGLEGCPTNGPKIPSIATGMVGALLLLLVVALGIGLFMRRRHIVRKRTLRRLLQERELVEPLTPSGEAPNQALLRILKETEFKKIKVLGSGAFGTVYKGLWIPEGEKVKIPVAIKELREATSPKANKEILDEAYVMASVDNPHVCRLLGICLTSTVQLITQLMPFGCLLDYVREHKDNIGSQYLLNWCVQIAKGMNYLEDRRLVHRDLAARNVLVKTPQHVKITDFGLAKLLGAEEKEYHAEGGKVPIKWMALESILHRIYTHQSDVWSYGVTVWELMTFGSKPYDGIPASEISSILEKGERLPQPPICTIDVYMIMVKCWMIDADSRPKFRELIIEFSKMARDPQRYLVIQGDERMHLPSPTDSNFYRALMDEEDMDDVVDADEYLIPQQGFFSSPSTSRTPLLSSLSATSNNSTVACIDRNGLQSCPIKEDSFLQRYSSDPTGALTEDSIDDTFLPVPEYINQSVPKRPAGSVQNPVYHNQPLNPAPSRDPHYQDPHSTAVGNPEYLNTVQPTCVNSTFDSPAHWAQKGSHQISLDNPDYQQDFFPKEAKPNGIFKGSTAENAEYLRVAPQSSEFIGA

Structure (SMILES): Cn1c(=O)c(-c2c(Cl)cccc2Cl)cc2cnc(Nc3ccccc3)nc21 [Example 54, 6-(2,6-Dichlorophenyl)-8-methyl-2-phenylamino-8H-pyrido[2,3-d]pyrimidin-7-one]
- pIC50 [1]: 6.64
- pIC50 (C-src kinase): 7.62
- pIC50 [2]: 7.11
- pIC50 (HCT-8): 6.28
- pIC50 (HT-29): 6.31
- pIC50 (SW-620): 6.85
- life span of animals infected with transplanted tumors (transplanted tumors): increased the life span
